Measurements published in US20240301408A1, “MICRORNA 195 COMPOSITIONS AND METHODS FOR TREATING COGNITIVE IMPAIRMENT” (UNITED STATES GOVERNMENT AS REPRESENTED BY THE DEPARTMENT …, priority 2021, published 2024).

Tests used:
[1] = tested on: lysosomes of synj1+/+ and synj1-/- neurons; test: lysosome size in mouse synj1+/+ and synj1-/- neurons co-cultured with ApoE4+/+ iPSC-derived astrocytes; type: cell-based
Protocol: (§1) Mouse Neuronal and human iPSC culture. Primary cortical neurons were cultured (Zhu L et al., Proc Natl Acad Sci USA 2015, and Zhu L et al., J Biol Chem 2013) before being fixed and stained for confocal microscopy analysis (Zeiss LSM) (Berg I et al., Nat Protoc 2010). In some conditions, bovine serum albumin (BSA) or receptor-associated protein (RAP) was included in the cultured media (N=3/group). Alternatively, cultured neurons were transfected with adeno-associated virus 2 (AAV2)-containing miR-195-5p or miR-374 or scramble controls for 5 days before subjected to analysis. The ApoE4^+/+ and ApoE3^+/+ iPSCs were differentiated into neural progenitor cells (NPCs) by dual SMAD inhibition followed by neural rosette selection and forebrain-specific patterning by 20 ng/ml FGF2 exposure (Bowles K R et al., PloS one 2019, and Tcw J et al., Stem cell reports 2017). These NPCs were purified by MACS for CD271^−/CD133^+ (Bowles K R et al., PloS one 2019) and differentiated to cortical neurons (Bardy C et al., Proc Natl Acad Sci USA 2015, and Paquet D et al., Nature 2016) and a homogeneous population of astrocytes (Tcw J et al., Stem cell reports 2017, and Shaltouki A et al., Stem Cells 2013) before subjected to viral transfection and confocal microscopy analysis. […]

ApoE = test: brain ApoE levels in ApoE KI mice after miR-195 over-expression; type: in vivo; settings: ApoE4+/+ or ApoE3+/+ mouse brains
Protocol: (§2) Stereotaxic injection and behavior studies. Eight to nine weeks old male and female ApoE3^+/+ and ApoE4^+/+ KI mice without 5×FAD background (N=19-23/group), or with 5×FAD background (N=15-17/group) were placed in the stereotaxic apparatus with AAV2 or scramble virus administered into the dorsal CA1 regions of bilateral hippocampal brain regions using pressure injection (Labonte B et al., Nat Med 2017, and Passini M A et al., The Journal of neuroscience 2006). Injection volumes (0.5-2.0 μl) were delivered over 10 min to avoid tissue damage. […]
(§3) Brain and neuronal sample preparation and biochemical analysis. […] Levels of Aβ42, Aβ40, pTau, Tau and ApoE were determined using high-sensitive ELISA kits. […]
(§4) Statistical analysis. […] Levels of miR-195-5p and miR-374 were normalized to U6 and RNU6B (internal controls) while synj1 mRNA normalized to GAPDH and 18s, and then expressed as Log2fold of changes when compared to controls. Levels of synj1, dyn1, pTau, Tau, and holoAPP were normalized to β-actin levels and expressed as a percentage of the control. Absolute Aβ42, Aβ40, pTau, Tau, and ApoE concentrations were quantitatively determined by ELISA and expressed as a percentage of the control. […] Pearson correlation coefficients were calculated to determine the linear relationship between the two variables. […]

[2] = tested on: endogenous mouse Aβ40 or Aβ42; test: endogenous brain Aβ40 / Aβ42 levels in ApoE KI mice after miR-195 over-expression; type: in vivo; settings: ApoE4+/+ or ApoE3+/+ mouse brains
Protocol: as §2, §3, §4

Aβ / amyloid plaque = test: brain oligomer Aβ42, soluble Aβ and amyloid plaque burden in EFAD mice after miR-195-5p over-expression; type: in vivo, mouse
Protocol: (§5) Stereotaxic injection and behavior studies. Eight to nine weeks old male and female ApoE3^+/+ and ApoE4^+/+ KI mice without 5×FAD background (N=19-23/group), or with 5×FAD background (N=15-17/group) were placed in the stereotaxic apparatus with AAV2 or scramble virus administered into the dorsal CA1 regions of bilateral hippocampal brain regions using pressure injection (Labonte B et al., Nat Med 2017, and Passini M A et al., The Journal of neuroscience 2006). Injection volumes (0.5-2.0 μl) were delivered over 10 min to avoid tissue damage. Six to nine months after viral delivery, mice were tested with the NOR task (Zhu L et al., Proc Natl Acad Sci USA 2015, Elder G A et al., J Neurotrauma 2012, and Howlett D R et al., Brain Res 2004). Mice were randomized for genotype and sex, and blinded throughout the behavior data collection and analysis, surgical manipulations, and sample collection.
Brain and neuronal sample preparation and biochemical analysis. Snap-frozen mouse hemi-brains or cultured neurons were harvested in lysis buffer (Lane R F et al., The Journal of neuroscience 2010) and processed via step-wise solubilization (Lane R F et al., The Journal of neuroscience 2010, and Kawarabayashi T et al. The Journal of neuroscience 2001) followed by SDS-PAGE to determine levels of synj1, dyn1, holoAPP, and CTFs. Levels of Aβ42, Aβ40, pTau, Tau and ApoE were determined using high-sensitive ELISA kits. Some tissue was used for miRNA and RNA extraction followed by qPCR and RNA-seq analysis. […]
as §4

pTau = pTau levels in iPSC-derived brain cell culture (AT8 staining, ELISA); type: cell-based, human; settings: iPSC-derived neuron and astrocyte co-culture
Protocol: as §1, with “2017).” for “2017). These NPCs were purified by MACS for CD271^−/CD133^+ (Bowles K R et al., PloS one 2019) and differentiated to cortical neurons (Bardy C et al., Proc Natl Acad Sci USA 2015, and Paquet D et al., Nature 2016) and a homogeneous population of astrocytes (Tcw J et al., Stem cell reports 2017, and Shaltouki A et al., Stem Cells 2013) before subjected to viral transfection and confocal microscopy analysis.”
as §3

ApoE4+/+ FAD mice = test: novel object recognition (NOR) after hippocampal AAV2 injection, ApoE KI mice with 5xFAD background (EFAD); type: in vivo, mouse; settings: male ApoE4+/+ FAD mice
Description: Animal models. Human ApoE4^+/+ or ApoE3^+/+ knock-in (KI) mouse models without (Grootendorst J et al., Behavioural brain research 2005, Rodriguez G A et al., Learn Mem 2013, and Wang C et al., Neurobiology of disease 2005) or with 5×FAD background (Balu D et al., Neurosci Lett 2019, and Tai L M et al., J Lipid Res 2017) were genotyped (Zhong L et al., Mol Neurodegener 2016). Sex as a biological variable was taken into considerations with inclusion of both male and female mice in the experiments.
as §5

[3] = tested on: lysosomes of ApoE4+/+ astrocytes; test: lysosome size (Lysotracker, confocal) in iPSC-derived astrocytes; type: cell-based, human; settings: control 36.5 μm^2
Protocol: as §1

[4] = ApoE4+/+ and ApoE3+/+ FAD mouse brains

UAGCAGCACAGAAAUAUUGGC (chemistry not given here) [miR-195-5p, over-expressed via AAV2-containing miR-195-5p from ABM Inc]
size of lysosomes ([1]; synj1+/+ neurons, control 101.5 μm^2): 75.8 μm^2
size of lysosomes ([1]; synj1-/- neurons, control 77.0 μm^2): 69.7 μm^2
ApoE levels (ApoE): No significant changes
ApoE levels (ApoE; listed as miR-195): no significant changes
endogenous Aβ40 or Aβ42 levels [2]: No significant changes
endogenous Aβ40 or Aβ42 levels ([2]; listed as miR-195): no significant changes
amyloid plaque burden (plaque numbers and plaque density) (Aβ / amyloid plaque; [4]): dramatic reduction
brain oligomer Aβ42 measured by ELISA (Aβ / amyloid plaque; [4]): dramatic reduction
soluble Aβ40, Aβ42 levels (Aβ / amyloid plaque; E4FAD and E3FAD mouse brains): no significant changes
pTau levels (fluorescent staining and ELISA) (pTau): reduced
NOR preference index (ApoE4+/+ FAD mice; scramble controls 37.8%): 63.1%
NOR discrimination index (ApoE4+/+ FAD mice; scramble controls -0.245): 0.262
average size of lysosomes (area) [3]: no significant differences
